# Experiments:
# [1] = Pooled metabolic analysis, 6-week studies: lipid profile
# Excerpt: OBJECTIVE: To examine the metabolic effects of bifeprunox in patients with acute and stable schizophrenia.
# METHODS: Metabolic data was compiled from one 6-month and four 6-week studies (i.e., a treatment period) of bifeprunox in patients with stable and acute schizophrenia, respectively. In the 6-month study, patients received bifeprunox (n=331) or placebo (PBO) (n=166). […] Metabolic evaluations included body weight, body mass index (BMI), plasma glucose and lipid profiles. Fasting glucose and lipid values were assessed in one 6-week study and in the 6-month study. Triglyceride:HDL ratio (TG:HDL) was calculated as a marker of insulin resistance. No statistical analyses were performed; only descriptive statistics are presented.
# [2] = Metabolic syndrome status, Clinical Study Four; format: in vivo, human; details: 6 months
# Description: (§1) METHODOLOGY: This study was a multinational, multicenter, randomized, double-blind, parallel-group, placebo-controlled, fixed-dose study. The study consisted of a 3- to 6-day antipsychotic-free run-in period, after which patients were randomised to 6 months of double-blind treatment with fixed doses of bifeprunox (20 mg/day (BX20) or 30 mg/day (BX30)) or placebo (PBO). Patients allocated to the BX groups were up-titrated from 0.25 mg/day over 7 days (BX20) or 8 days (BX30), and then continued on these doses for the remainder of the study. […] At predetermined time points, blood samples were obtained for drug concentration analysis of BX and its major metabolites (3′- and 4′-sulfate conjugates of BX), and pharmaco-economic assessments were performed.
# [3] = tested on: patients with chronic schizophrenia; test: PANSS negative subscale score, Clinical Study Four; format: in vivo, human; details: FAS, ANCOVA; for PANSS negative subscale, Adjusted Mean Change from Baseline (LS mean): LOCF; for mean PANSS negative subscale scores versus PBO, per-visit LOCF analysis: both BX doses
# Description: as §1
# [4] = tested on: patients with chronic schizophrenia; test: PANSS total score, Clinical Study Four; format: in vivo, human; details: FAS, ANCOVA; for Adjusted Mean Change from Baseline in PANSS Total Score, Difference to PBO Mean: Week 6 (day 42)
# Description: as §1
# [5] = fasting, endpoint, 6-week studies, BX total, OLZ 15 mg
# [6] = non-fasting, endpoint, 6-week studies, BX total, RISP 6 mg, OLZ 15 mg, HAL 10 mg
structure (smiles),measurement,setting,value
"O=c1[nH]c2cccc(N3CCN(Cc4cccc(-c5ccccc5)c4)CC3)c2o1 [Bifeprunox, 7-[4-([1,1′-biphenyl]-3-ylmethyl)-1-piperazinyl]-2(3H)-benzoxazolone]",change in total cholesterol (TC),[1]; 6-week studies,-0.40 mmol/L
same,decrease in total cholesterol (TC),[1]; 6-week studies,8%
same,non-fasting total cholesterol and triglyceride at endpoint (in words),[1]; 6-week studies,greatest decreases
same,change in TG,[1]; 6 week studies,-0.44 mmol/L
same,decrease in TG,[1]; 6 week studies,24%
same,"Fasting HDL, Mean change (SD)",[1]; [5],−0.5 (10.7) mg/dL
same,"Fasting HDL, Percentage mean change",[1]; [5],−1.0%
same,"Total cholesterol, Mean change (SD)",[1]; [5],−15.5 (32.9) mg/dL
same,"Total cholesterol, Percentage mean change",[1]; [5],−7.9%
same,"Triglyceride:HDL ratio, Mean change (SD)",[1]; [5],−0.4 (0.9)
same,"Triglyceride:HDL ratio, Percentage mean change",[1]; [5],−23.8%
same,"Triglycerides, Mean change (SD)",[1]; [5],−38.9 (73.5) mg/dL
same,"Triglycerides, Percentage mean change",[1]; [5],−24.2%
same,"Total cholesterol, Mean change (SD)",[1]; [6],−12.9 (0.8) mg/dL
same,"Triglycerides, Mean change (SD)",[1]; [6],−38.7 (1.3) mg/dL
same,effect on patients' status of metabolic syndrome,[2]; BX either dose (20 or 30 mg/day),no treatment effect
same,"metabolic profile (weight changes, blood lipids, metabolic syndrome)",[2]; bifeprunox 20 or 30 mg/day,A favorable metabolic profile
same,"PANSS negative subscale, Adjusted Mean Change from Baseline (LS mean)","[3]; Month 6, listed as BX20",−1.6
same,"PANSS negative subscale, Adjusted Mean Change from Baseline (LS mean)","[3]; Month 6, listed as BX30",−1.7
same,"PANSS negative subscale, Adjusted Mean Change from Baseline (LS mean)","[3]; Week 6, listed as BX20",−2.0
same,"PANSS negative subscale, Adjusted Mean Change from Baseline (LS mean)","[3]; Week 6, listed as BX30",−1.6
same,"mean PANSS negative subscale scores versus PBO, per-visit LOCF analysis",[3]; listed as BX,"statistically significantly superior to that with PBO at all time points, except at Weeks 2 and 4 for the BX30 group"
same,"mean PANSS negative subscale scores versus PBO, per-visit LOCF analysis",[3]; listed as BX20,"statistically significantly superior to that with PBO at all time points, except at Weeks 2 and 4 for BX30"
same,"Adjusted Mean Change from Baseline in PANSS Total Score, Difference to PBO Mean","[4]; BX20 (bifeprunox 20 mg/day), LOCF",−5.07
same,"Adjusted Mean Change from Baseline in PANSS Total Score, Difference to PBO Mean","[4]; BX30 (bifeprunox 30 mg/day), LOCF",−3.71
same,"Adjusted Mean Change from Baseline in PANSS Total Score, Least Squares Estimates Mean","[4]; Day 7, LOCF, listed as BX20",−1.89
same,"Change from Baseline in PANSS Total Score, Difference to PBO Mean","[4]; Day 7, LOCF, listed as BX20",−1.30
same,"Adjusted Mean Change from Baseline in PANSS Total Score, Least Squares Estimates Mean","[4]; Day 7, LOCF, listed as BX30",−0.73
same,"Change from Baseline in PANSS Total Score, Difference to PBO Mean","[4]; Day 7, LOCF, listed as BX30",−0.14
same,"Adjusted Mean Change from Baseline in PANSS Total Score, Least Squares Estimates Mean","[4]; Day 7, OC, listed as BX20",−1.89
same,"Change from Baseline in PANSS Total Score, Difference to PBO Mean","[4]; Day 7, OC, listed as BX20",−1.30
same,"Adjusted Mean Change from Baseline in PANSS Total Score, Least Squares Estimates Mean","[4]; Day 7, OC, listed as BX30",−0.73
same,"Change from Baseline in PANSS Total Score, Difference to PBO Mean","[4]; Day 7, OC, listed as BX30",−0.14
same,"Adjusted Mean Change from Baseline in PANSS Total Score, Least Squares Estimates Mean","[4]; Day 7, POCF, listed as BX20",−2.81
same,"Change from Baseline in PANSS Total Score, Difference to PBO Mean","[4]; Day 7, POCF, listed as BX20",−1.33
same,"Adjusted Mean Change from Baseline in PANSS Total Score, Least Squares Estimates Mean","[4]; Day 7, POCF, listed as BX30",−2.23
same,"Change from Baseline in PANSS Total Score, Difference to PBO Mean","[4]; Day 7, POCF, listed as BX30",−0.76
same,"Adjusted Mean Change from Baseline in PANSS Total Score, Least Squares Estimates Mean","[4]; Day 14, LOCF, listed as BX20",−3.03
same,"Change from Baseline in PANSS Total Score, Difference to PBO Mean","[4]; Day 14, LOCF, listed as BX20",−2.38
same,"Adjusted Mean Change from Baseline in PANSS Total Score, Least Squares Estimates Mean","[4]; Day 14, LOCF, listed as BX30",−1.45
same,"Change from Baseline in PANSS Total Score, Difference to PBO Mean","[4]; Day 14, LOCF, listed as BX30",−0.79
same,"Adjusted Mean Change from Baseline in PANSS Total Score, Least Squares Estimates Mean","[4]; Day 14, OC, listed as BX20",−4.77
same,"Change from Baseline in PANSS Total Score, Difference to PBO Mean","[4]; Day 14, OC, listed as BX20",−2.39
same,"Adjusted Mean Change from Baseline in PANSS Total Score, Least Squares Estimates Mean","[4]; Day 14, OC, listed as BX30",−4.43
same,"Change from Baseline in PANSS Total Score, Difference to PBO Mean","[4]; Day 14, OC, listed as BX30",−2.05
same,"Adjusted Mean Change from Baseline in PANSS Total Score, Least Squares Estimates Mean","[4]; Day 14, POCF, listed as BX20",−5.48
same,"Change from Baseline in PANSS Total Score, Difference to PBO Mean","[4]; Day 14, POCF, listed as BX20",−2.61
same,"Adjusted Mean Change from Baseline in PANSS Total Score, Least Squares Estimates Mean","[4]; Day 14, POCF, listed as BX30",−4.65
same,"Change from Baseline in PANSS Total Score, Difference to PBO Mean","[4]; Day 14, POCF, listed as BX30",−1.78
same,"Adjusted Mean Change from Baseline in PANSS Total Score, Least Squares Estimates Mean","[4]; Day 28, LOCF, listed as BX20",−.327
same,"Change from Baseline in PANSS Total Score, Difference to PBO Mean","[4]; Day 28, LOCF, listed as BX20",−3.34
same,"Adjusted Mean Change from Baseline in PANSS Total Score, Least Squares Estimates Mean","[4]; Day 28, LOCF, listed as BX30",−2.13
same,"Change from Baseline in PANSS Total Score, Difference to PBO Mean","[4]; Day 28, LOCF, listed as BX30",−2.20
same,"Adjusted Mean Change from Baseline in PANSS Total Score, Least Squares Estimates Mean","[4]; Day 28, OC, listed as BX20",−7.61
same,"Change from Baseline in PANSS Total Score, Difference to PBO Mean","[4]; Day 28, OC, listed as BX20",−4.09
same,"Adjusted Mean Change from Baseline in PANSS Total Score, Least Squares Estimates Mean","[4]; Day 28, OC, listed as BX30",−7.14
same,"Change from Baseline in PANSS Total Score, Difference to PBO Mean","[4]; Day 28, OC, listed as BX30",−3.63
same,"Adjusted Mean Change from Baseline in PANSS Total Score, Least Squares Estimates Mean","[4]; Day 28, POCF, listed as BX20",−7.74
same,"Change from Baseline in PANSS Total Score, Difference to PBO Mean","[4]; Day 28, POCF, listed as BX20",−3.63
same,"Adjusted Mean Change from Baseline in PANSS Total Score, Least Squares Estimates Mean","[4]; Day 28, POCF, listed as BX30",−6.85
same,"Change from Baseline in PANSS Total Score, Difference to PBO Mean","[4]; Day 28, POCF, listed as BX30",−2.74
same,"Adjusted Mean Change from Baseline in PANSS Total Score, Least Squares Estimates Mean","[4]; Day 42, LOCF, listed as BX20",−4.01
same,"Change from Baseline in PANSS Total Score, Difference to PBO Mean","[4]; Day 42, LOCF, listed as BX20",−5.07
same,"Adjusted Mean Change from Baseline in PANSS Total Score, Least Squares Estimates Mean","[4]; Day 42, LOCF, listed as BX30",−2.65
same,"Change from Baseline in PANSS Total Score, Difference to PBO Mean","[4]; Day 42, LOCF, listed as BX30",−3.71
same,"Adjusted Mean Change from Baseline in PANSS Total Score, Least Squares Estimates Mean","[4]; Day 42, OC, listed as BX20",−12.40
same,"Change from Baseline in PANSS Total Score, Difference to PBO Mean","[4]; Day 42, OC, listed as BX20",−6.14
same,"Adjusted Mean Change from Baseline in PANSS Total Score, Least Squares Estimates Mean","[4]; Day 42, OC, listed as BX30",−11.23
same,"Change from Baseline in PANSS Total Score, Difference to PBO Mean","[4]; Day 42, OC, listed as BX30",−4.97

# Reference: US20090068290A1, “BIFEPRUNOX DOSES FOR TREATING SCHIZOPHRENIA” (priority 2006, published 2009)
